Measurements: ChEMBL document CHEMBL3886800, “Disubstituted 3,4-diamino-3-cyclobutene-1,2-dione compounds for use in the treatment of chemokine-mediated diseases” (2016)

How the values were obtained:
[1] = target: T1, C-X-C chemokine receptor type 1 (Homo sapiens, UniProt P25024); test: (§1) In Vitro Affinity Assay: ⿿PathHunter HEK293-CXCR2⿝ or ⿿U2OS hCXCR1 β-arrestin⿝ cells (DiscoveRx Corporation) were seeded overnight at 10 000 cells/well (384-well format) in 20 μl of Opti MEM I medium. A preincubation with the antagonist or the vehicle for 30 min at 37° C. and 5% CO2 was followed by 60 minutes of stimulation with CXCL8 at 37° C. and 5% CO2. The cells were then placed at ambient temperature for 30 minutes. The PathHunter detection reagent (DiscoveRx Corporation) was added. After incubation for 60 min at ambient temperature, the […] during the β-arrestin-CXCR2 interaction was measured for 0.3 s in an Envision 2102 Multilabel Reader (PerkinElmer Life and Analytical Sciences).
T1 sequence (P25024 whole entry): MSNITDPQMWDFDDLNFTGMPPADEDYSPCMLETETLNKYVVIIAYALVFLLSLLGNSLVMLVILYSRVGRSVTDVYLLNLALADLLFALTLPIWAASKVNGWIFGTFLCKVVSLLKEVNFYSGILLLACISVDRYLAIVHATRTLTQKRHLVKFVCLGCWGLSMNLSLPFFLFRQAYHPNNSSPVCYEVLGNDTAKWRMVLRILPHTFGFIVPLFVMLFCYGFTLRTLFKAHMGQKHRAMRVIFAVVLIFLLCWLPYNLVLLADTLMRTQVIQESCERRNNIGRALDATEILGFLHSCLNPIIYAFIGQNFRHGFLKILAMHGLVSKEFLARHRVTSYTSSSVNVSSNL

[2] = target: T2, C-X-C chemokine receptor type 2 (Homo sapiens, UniProt P25025); test: as §1
T2 sequence (P25025 whole entry): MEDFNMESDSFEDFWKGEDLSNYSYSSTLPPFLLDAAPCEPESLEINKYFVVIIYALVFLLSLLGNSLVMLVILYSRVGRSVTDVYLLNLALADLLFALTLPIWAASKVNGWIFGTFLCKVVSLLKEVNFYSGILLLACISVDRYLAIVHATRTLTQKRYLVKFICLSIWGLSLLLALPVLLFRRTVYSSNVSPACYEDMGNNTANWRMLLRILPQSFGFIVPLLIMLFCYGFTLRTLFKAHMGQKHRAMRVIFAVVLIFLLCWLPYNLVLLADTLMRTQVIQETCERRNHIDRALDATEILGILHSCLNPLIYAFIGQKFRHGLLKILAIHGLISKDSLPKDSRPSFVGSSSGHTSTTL

| IC50 [1] [µM] | IC50 [2] [µM] | Compound |
| --- | --- | --- |
| 0.652 | 0.023 | Cc1ccc(C(Nc2c(Nc3cccnc3O)c(=O)c2=O)C2CCCS2)o1 (centres undefined) |
| 0.113 | 0.069 | Cc1ccc(C(Nc2c(Nc3ccc(Cl)c(C(=O)N(C)C)c3O)c(=O)c2=O)C2CCCS2)o1 (single isomer, unassigned) |
